# Patent US11702419B2, “Heterocyclic compound and use thereof” (Takeda Pharmaceutical Company Limited, priority 2018, dated 2023)
# Target: T1, NMDA receptor composed of four subunits consisting of two sets of heterodimers of NR1 and NR2B (human GRIN1 and GRIN2B-expressing HEK293 cells) (Homo sapiens, UniProt Q13224)
# T1 construct: host or cells: HEK293 (tetracycline-inducible expression)
# Experiment: NR2B Ca2+ influx assay
# Format: cell-based
# Settings: 10 μM compound, glutamic acid/glycine-induced Ca2+ influx, FLIPR, read-out: inhibitory rate (10 μM compound concentration)
# Method: In order to confirm an “antagonistic action on an NMDA receptor containing the NR2B subunit” which the compound of the present invention has, inhibitory effect on the NMDA receptor activation was evaluated using “NMDA receptor composed of four subunits consisting of two sets of heterodimers of NR1 and NR2B”-expressing human fetal renal cells, specifically human glutamate ionotropic receptor NMDA type subunit 1 (GRIN1) and human glutamate ionotropic receptor NMDA type subunit 2B (GRIN2B)-expressing HEK293 cells.
# As an index of the NMDA receptor activation, intracellular calcium ion (Ca^2+) influx caused by bonding of glycine and glutamate to NR1 and NR2B respectively was used. HEK293 cells were purchased from ChanTest. The cells were cultured in a DMEM/F-12 (COSMO BIO, 10-092-CM) medium containing 10% FBS (fetal bovine serum, AusGene), 100 units/mL penicillin, 100 μg/mL streptomycin, 500 μg/mL neomycin, 100 μg/mL Zeocin and 5 μg/mL Blasticidin at 37° C., 5% CO2. The cells were detached from flask with trypsin the day before the assay, suspended in a seeding medium (DMEM (Invitrogen, 31053) containing 10% FBS, 100 units/mL penicillin and 100 μg/mL streptomycin) at 8×10^5 cells/mL, seeded by 25 μL per well in a 384-well plate (Falcon, 356663) at 20000 cells/well, and cultured overnight in an incubator. On the day of the assay, tetracycline (Wako Pure Chemical Industries, 209-16561) was diluted with the seeding medium at 2 μg/mL, and the dilution was added at 25 μL/well to the plate seeded with the cells, and the cells were cultured for 2 hr in an incubator. Thereafter, the medium was removed, and the cells were washed with 50 μL/well of assay buffer (137 mM NaCl, 4 mM KCl, 1.8 mM CaCl2, 10 mM HEPES (pH 7.2), 10 mM Glucose, and 0.1% BSA). Then, a loading buffer (assay buffer containing 2.5 μM Fluo-4AM, 2 mM Amaranth and 1 mM Tartrazine) was added thereto at 25 μL/well, and loading was performed in the incubator for 30 min, and then at room temperature for 15 min. The test compound was diluted with the above-mentioned assay buffer so as to adjust the concentration to 30 μM, the obtained solution (25 μL) was added thereto (the final concentration 10 μM), and the cells were stood for 15 min at room temperature. Using FLIPR (Molecular Devices), 25 μL of an assay buffer containing 30 μM glutamic acid and 30 μM glycine was added thereto, and the fluorescence signal was measured every 3 seconds for 5 min. The relative activity value (inhibitory rate) was calculated when the cumulative total value of the fluorescence value of a well added with a buffer free of glutamic acid and glycine, relative to the cumulative total value of the fluorescence value of each well are regarded as 100% inhibition. The obtained value was evaluated as an inhibitory activity.
# T1 sequence (Q13224 27-1484, other chains not shown): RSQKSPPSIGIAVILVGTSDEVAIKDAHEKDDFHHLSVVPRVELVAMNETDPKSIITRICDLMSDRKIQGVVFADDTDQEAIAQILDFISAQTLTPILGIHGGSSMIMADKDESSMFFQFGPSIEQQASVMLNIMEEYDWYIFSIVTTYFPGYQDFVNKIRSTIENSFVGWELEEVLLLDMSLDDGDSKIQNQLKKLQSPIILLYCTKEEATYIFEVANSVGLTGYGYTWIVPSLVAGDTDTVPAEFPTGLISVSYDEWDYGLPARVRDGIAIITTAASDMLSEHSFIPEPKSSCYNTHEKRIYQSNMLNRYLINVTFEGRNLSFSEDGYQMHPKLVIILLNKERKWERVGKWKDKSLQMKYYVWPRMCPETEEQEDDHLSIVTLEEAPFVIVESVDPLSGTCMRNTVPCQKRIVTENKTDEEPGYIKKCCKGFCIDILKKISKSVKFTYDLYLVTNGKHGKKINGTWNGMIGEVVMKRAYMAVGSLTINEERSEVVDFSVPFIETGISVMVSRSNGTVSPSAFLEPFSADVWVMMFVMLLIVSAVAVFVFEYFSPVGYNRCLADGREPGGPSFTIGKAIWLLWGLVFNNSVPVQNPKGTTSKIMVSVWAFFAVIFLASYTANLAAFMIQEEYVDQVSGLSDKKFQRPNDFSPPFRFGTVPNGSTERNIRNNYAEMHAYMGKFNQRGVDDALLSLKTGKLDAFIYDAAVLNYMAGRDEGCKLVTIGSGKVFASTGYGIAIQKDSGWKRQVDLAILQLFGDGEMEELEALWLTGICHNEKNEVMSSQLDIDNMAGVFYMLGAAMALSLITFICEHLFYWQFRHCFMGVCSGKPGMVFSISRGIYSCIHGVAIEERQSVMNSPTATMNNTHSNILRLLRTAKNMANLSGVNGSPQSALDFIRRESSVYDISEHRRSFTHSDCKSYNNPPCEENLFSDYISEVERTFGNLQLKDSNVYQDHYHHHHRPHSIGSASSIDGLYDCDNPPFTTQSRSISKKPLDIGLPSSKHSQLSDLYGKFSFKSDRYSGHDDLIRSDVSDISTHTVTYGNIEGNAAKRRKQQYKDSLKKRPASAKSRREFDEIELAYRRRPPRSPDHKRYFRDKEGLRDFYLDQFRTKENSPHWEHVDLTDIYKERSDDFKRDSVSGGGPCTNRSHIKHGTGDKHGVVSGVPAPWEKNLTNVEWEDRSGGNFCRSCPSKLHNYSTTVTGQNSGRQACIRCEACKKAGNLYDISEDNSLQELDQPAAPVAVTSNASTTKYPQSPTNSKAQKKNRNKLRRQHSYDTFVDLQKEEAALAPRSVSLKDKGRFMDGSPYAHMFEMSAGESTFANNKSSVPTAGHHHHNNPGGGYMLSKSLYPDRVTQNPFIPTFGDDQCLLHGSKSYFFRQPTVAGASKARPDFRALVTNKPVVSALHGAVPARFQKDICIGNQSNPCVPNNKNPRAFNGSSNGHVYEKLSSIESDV
row,Structure (SMILES),inhibition at 10 µM [%]
1,"CCOc1nn2ncccc2c1CNC(=O)c1ccc(OC(F)F)c(F)c1 [Example 25, 4-(difluoromethoxy)-N-((2-ethoxypyrazolo[1,5-b]pyridazin-3-yl)methyl)-3-fluorobenzamide]",78
2,"O=C(NCc1nnn2ncccc12)c1ccc(OC(F)F)c(Cl)c1 [Example 30, 3-chloro-4-(difluoromethoxy)-N-([1,2,3]triazolo[1,5-b]pyridazin-3-ylmethyl)benzamide]",97
3,"Cn1ccn2ncc(CNC(=O)c3ccc(OC4CC4)cc3)c12 [Example 60, 4-(cyclopropyloxy)-N-((1-methyl-1H-imidazo[1,2-b]pyrazol-7-yl)methyl)benzamide]",88
4,"Cc1ccc2c(CNC(=O)c3ccc(OC(F)(F)F)c(F)c3)cnn2n1 [Example 11, 3-fluoro-N-((6-methylpyrazolo[1,5-b]pyridazin-3-yl)methyl)-4-(trifluoromethoxy)benzamide]",98
5,"CCc1nn2ncccc2c1CNC(=O)c1ccc(OC(F)F)c(F)c1 [Example 27, 4-(difluoromethoxy)-N-((2-ethylpyrazolo[1,5-b]pyridazin-3-yl)methyl)-3-fluorobenzamide]",92
6,"O=C(NCc1cnn2ccncc12)c1ccc(OC(F)(F)F)c(F)c1 [Example 16, 3-fluoro-N-(pyrazolo[1,5-a]pyrazin-3-ylmethyl)-4-(trifluoromethoxy)benzamide]",97
7,"Cn1ccn2ncc(CNC(=O)c3ccc(C(F)(F)F)c(F)c3)c12 [Example 67, 3-fluoro-N-((1-methyl-1H-imidazo[1,2-b]pyrazol-7-yl)methyl)-4-(trifluoromethyl)benzamide]",98
8,"O=C(NCc1nnn2ncccc12)c1ccc(OC(F)(F)F)cc1 [Example 19, N-([1,2,3]triazolo[1,5-b]pyridazin-3-ylmethyl)-4-(trifluoromethoxy)benzamide]",96
9,"Cc1nn2ncc(CNC(=O)c3ccc(OC(F)(F)F)c(F)c3)c2n1CC(F)F [Example 78, N-{[1-(2,2-difluoroethyl)-2-methyl-1H-pyrazolo[1,5-b][1,2,4]triazol-7-yl]methyl}-3-fluoro-4-(trifluoromethoxy)benzamide]",81
10,"Cc1cccn2nnc(CNC(=O)c3ccc(OC(F)F)c(Cl)c3)c12 [Example 3, 3-chloro-4-(difluoromethoxy)-N-((4-methyl[1,2,3]triazolo[1,5-a]pyridin-3-yl)methyl)benzamide]",76
11,"O=C(NCc1nnn2ncccc12)c1ccc(OC(F)(F)F)c(Cl)c1 [Example 40, 3-chloro-N-([1,2,3]triazolo[1,5-b]pyridazin-3-ylmethyl)-4-(trifluoromethoxy)benzamide]",98
12,"COc1ncc(C(=O)NCc2cnn3ccn(C)c23)cc1F [Example 61, 5-fluoro-6-methoxy-N-((1-methyl-1H-imidazo[1,2-b]pyrazol-7-yl)methyl)nicotinamide]",88
13,"Cn1ccn2ncc(CNC(=O)c3ccc(C(F)(F)F)s3)c12 [Example 65, N-((1-methyl-1H-imidazo[1,2-b]pyrazol-7-yl)methyl)-5 (trifluoromethyl)thiophene-2-carboxamide]",96
14,"Cn1ccn2ncc(CNC(=O)c3ccc(OC(F)(F)F)nc3)c12 [Example 64, N-((1-methyl-1H-imidazo[1,2-b]pyrazol-7-yl)methyl)-6-(trifluoromethoxy)nicotinamide]",96
15,"O=C(NCc1cnn2ccn(CC(F)F)c12)c1ccc(OC(F)(F)F)c(F)c1 [Example 81, N-{[1-(2,2-difluoroethyl)-1H-imidazo[1,2-b]pyrazol-7-yl]methyl}-3-fluoro-4-(trifluoromethoxy)benzamide]",96
16,"Cn1ccn2ncc(CNC(=O)c3ccc(OC(F)(F)F)c(F)c3)c12 [Example 57, 3-fluoro-N-((1-methyl-1H-imidazo[1,2-b]pyrazol-7-yl)methyl)-4-(trifluoromethoxy)benzamide]",97
17,"Cc1nn2ncc(CNC(=O)c3ccc(OC(F)(F)F)c(F)c3)c2n1C [Example 71, N-[(1,2-dimethyl-1H-pyrazolo[1,5-b][1,2,4]triazol-7-yl)methyl]-3-fluoro-4-(trifluoromethoxy)benzamide]",97

# Further lines, results first:
row,inhibition at 10 µM [%],Structure (SMILES)
1,97,"Cc1cnn2nnc(CNC(=O)c3cnc(OC(F)F)c(Cl)c3)c2c1 [Example 51, 5-chloro-6-(difluoromethoxy)-N-((5-methyl[1,2,3]triazolo[1,5-b]pyridazin-3-yl)methyl)nicotinamide]"
2,94,"O=C(NCc1nnn2ccccc12)c1cnc(OC(F)F)c(F)c1 [Example 14, 6-(difluoromethoxy)-5-fluoro-N-([1,2,3]triazolo[1,5-a]pyridin-3-ylmethyl)nicotinamide]"
3,90,"Cc1nn2ncc(CNC(=O)c3cnc(OC(F)F)c(F)c3)c2n1C(F)F [Example 74, 6-(difluoromethoxy)-N-{[1-(difluoromethyl)-2-methyl-1H-pyrazolo[1,5-b][1,2,4]triazol-7-yl]methyl}-5-fluoropyridine-3-carboxamide]"
4,84,"Cc1nn2cnccc2c1CNC(=O)c1cnc(OC(F)F)c(F)c1 [Example 55, 6-(difluoromethoxy)-5-fluoro-N-((2-methylpyrazolo[1,5-c]pyrimidin-3-yl)methyl)nicotinamide]"
5,97,"Cc1cnn2ncc(CNC(=O)c3cnc(OC(F)F)c(F)c3)c2c1 [Example 39, 6-(difluoromethoxy)-5-fluoro-N-((5-methylpyrazolo[1,5-b]pyridazin-3-yl)methyl)nicotinamide]"
6,98,"Cc1cnn2nnc(CNC(=O)c3ccc(OC(F)(F)F)c(F)c3)c2c1 [Example 49, 3-fluoro-N-((5-methyl[1,2,3]triazolo[1,5-b]pyridazin-3-yl)methyl)-4-(trifluoromethoxy)benzamide]"
7,94,"CCn1ccn2ncc(CNC(=O)c3cnc(OC(F)F)c(F)c3)c12 [Example 83, 6-(difluoromethoxy)-N-[(1-ethyl-1H-imidazo[1,2-b]pyrazol-7-yl)methyl]-5-fluoropyridine-3-carboxamide]"
8,85,"Cc1nn2cnccc2c1CNC(=O)c1cnc(OC(F)F)c(Cl)c1 [Example 56, 5-chloro-6-(difluoromethoxy)-N-((2-methylpyrazolo[1,5-c]pyrimidin-3-yl)methyl)nicotinamide]"
9,54,"Cc1nn2ncc(CNC(=O)c3cnc(OC(F)F)c(Cl)c3)c2n1CC(F)F [Example 77, 5-chloro-N-{[1-(2,2-difluoroethyl)-2-methyl-1H-pyrazolo[1,5-b][1,2,4]triazol-7-yl]methyl}-6-(difluoromethoxy)pyridine-3-carboxamide]"
10,95,"O=C(NCc1nnn2ncccc12)c1cnc(OC(F)F)c(F)c1 [Example 23, 6-(difluoromethoxy)-5-fluoro-N-([1,2,3]triazolo[1,5-b]pyridazin-3-ylmethyl)nicotinamide]"
11,72,"O=C(NCc1cnn2ccn(CC(F)(F)F)c12)c1cnc(OC(F)F)c(F)c1 [Example 82, 6-(difluoromethoxy)-5-fluoro-N-{[1-(2,2,2-trifluoroethyl)-1H-imidazo[1,2-b]pyrazol-7-yl]methyl}pyridine-3-carboxamide]"
12,98,"O=C(NCc1cnn2ncccc12)c1ccc(OC(F)F)c(Cl)c1 [Example 7, 3-chloro-4-(difluoromethoxy)-N-(pyrazolo[1,5-b]pyridazin-3-ylmethyl)benzamide]"
13,98,"O=C(NCc1nnn2ncccc12)c1cnc(OC(F)F)c(Cl)c1 [Example 22, 5-chloro-6-(difluoromethoxy)-N-([1,2,3]triazolo[1,5-b]pyridazin-3-ylmethyl)nicotinamide]"
14,93,"Cc1nn2ccn(C)c2c1CNC(=O)c1cnc(OC(F)F)c(F)c1 [Example 73, 6-(difluoromethoxy)-N-[(1,6-dimethyl-1H-imidazo[1,2-b]pyrazol-7-yl)methyl]-5-fluoropyridine-3-carboxamide]"
15,92,"O=C(NCc1cnn2ccncc12)c1cnc(OC(F)F)c(F)c1 [Example 45, 6-(difluoromethoxy)-5-fluoro-N-(pyrazolo[1,5-a]pyrazin-3-ylmethyl)nicotinamide]"
